Measured values taken from patent US11696913B2, “Prolonged ectoparasite-controlling agent for animal” (MITSUI CHEMICALS AGRO, INC., priority 2017, dated 2023).
Like-named read-outs stand apart in the source and are kept apart here.

Key:
Amblyomma americanum = experiment: In vitro contact test with hard ticks (Amblyomma americanum nymphs); conditions: read-out: acaricidal activity; for pest or weed control at 0.2 µg/cm2, 0.2 µg/cm2: dose 0.2 μg/cm^2, 48 h; for pest or weed control at 1 µg/cm2, 1 µg/cm2: dose 1 μg/cm^2, 48 h
In short: (§1)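 Adult R. sanguineus, I. ricinus, D. variabilis or A. americanum nymphs exposed in glass vials coated with compound from acetone (900 ppm gives 5 μg/cm^2). Held 48 h at room temperature (R. sanguineus) or 21° C., 85% rel. hum.; then heated at 45-50° C. ≤5 min, motionless or uncoordinated ticks scored dead/moribund.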

Ixodes ricinus = experiment: In vitro contact test with adult hard ticks (Ixodes ricinus); conditions: read-out: acaricidal activity; for pest or weed control at 0.2 µg/cm2, 0.2 µg/cm2: dose 0.2 μg/cm^2, 48 h; for pest or weed control at 1 µg/cm2, 1 µg/cm2: dose 1 μg/cm^2, 48 h; for pest or weed control at 5 µg/cm2, 5 µg/cm2: dose 5 μg/cm^2, 48 h
In short: as §1

Rhipicephalus sanguineus = experiment: In vitro contact test with adult hard ticks (Rhipicephalus sanguineus); conditions: read-out: acaricidal activity; for pest or weed control at 1 µg/cm2, 1 µg/cm2: dose 1 μg/cm^2, 48 h; for pest or weed control at 0.2 µg/cm2, 0.2 µg/cm2: dose 0.2 μg/cm^2, 48 h
In short: as §1

Ctenocephalides felis = experiment: Topical treatment in-vivo test with cat flea on rats; conditions: topical spot-on
Protocol: (§2) Topical Treatment In-Vivo Test with American Dog Tick Nymph and Cat Flea on Rats
(§3) Type of study and overall study design: The method is a randomized non-blinded efficacy study in accordance with European animal welfare requirements. Rats (Rattus norvegicus) were randomized based on pre-treatment flea counts. The efficacy of treatment was determined by comparison of the flea and tick counts of different treatment groups versus the placebo-treated control group. The experimental unit was the individual study animal.
(§4) Method and route of administration: The compound was applied in a suitable solvent and carrier (more specifically, added to the following mixture: 33.3% by weight propylene carbonate, […] N-methylpyrrolidone, 0.1% by weight BHA, 0.05% by weight BHT) considering the individual body weight as topical spot-on between the shoulder blades directly onto the skin.
(§5) Experimental infestation: On the day of treatment and weekly thereafter, 30 ticks (D. variabilis nymphs) were released onto the back of each rat, and 30 fleas (C. felis) were released onto the back of each rat 24 h later.
(§6) Tick and Flea counting: Rats were thoroughly examined and ticks and fleas were manually removed 48 h (+4 h) after tick infestation and 24 h after flea infestation. Live fleas and live attached engorged ticks were counted. In non-evident cases, engorgement status was evaluated by squeezing the tick on a filter paper to find traces of blood as sign for engorgement.

Dermacentor variabilis [1] = experiment: Topical treatment in-vivo test with American dog tick nymph on rats; conditions: topical spot-on, 25 mg/kg
Protocol: as §2, §3, §4, §5, §6

Laodelphax striatellus = experiment: Insecticidal testing against small brown planthopper; type: in vivo; conditions: 144 h, concentration 100 ppm, sprayed rice seedlings, after 6 days, read-out: pesticidal rate
In short: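 Acetone solution of compound at a set concentration sprayed onto rice seedlings, air-dried, then exposed to 10 planthoppers (one group). Held at 25° C; survival rate recorded after 6 days.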

Dermacentor variabilis [2] = experiment: Systemic treatment in-vivo test with American dog tick nymph on rats; conditions: Dermacentor variabilis, ip, intraperitoneal injection
In short: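 Rats dosed intraperitoneally per body weight in glycerol formal (up to 25% NMP for poorly soluble compounds). 30 D. variabilis nymphs released on treatment day and weekly, 30 C. felis fleas 24 h later; live attached engorged ticks counted at 48 h (±4 h), live fleas at 24 h, efficacy versus placebo group.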

[3] = SD 2, read-out: Geometric mean percent reduction in live tick (Dermacentor variabilis) counts compared to untreated control rats
[4] = SD 9, read-out: Geometric mean percent reduction in live tick (Dermacentor variabilis) counts compared to untreated control rats
[5] = SD 16, read-out: Geometric mean percent reduction in live tick (Dermacentor variabilis) counts compared to untreated control rats
[6] = SD 23, read-out: Geometric mean percent reduction in live tick (Dermacentor variabilis) counts compared to untreated control rats

Compound	pest or weed control at 0.2 µg/cm2, 0.2 µg/cm2 (Amblyomma americanum) [%]	pest or weed control at 1 µg/cm2, 1 µg/cm2 (Amblyomma americanum) [%]	pest or weed control at 0.2 µg/cm2, 0.2 µg/cm2 (Ixodes ricinus) [%]	pest or weed control at 1 µg/cm2, 1 µg/cm2 (Ixodes ricinus) [%]	pest or weed control at 5 µg/cm2, 5 µg/cm2 (Ixodes ricinus) [%]	pest or weed control at 1 µg/cm2, 1 µg/cm2 (Rhipicephalus sanguineus) [%]	pest or weed control at 0.2 µg/cm2, 0.2 µg/cm2 (Rhipicephalus sanguineus) [%]	Geometric mean percent reduction in live tick (Dermacentor variabilis) counts compared to untreated control rats (Dermacentor variabilis [1]; SD 2) [%]	Geometric mean percent reduction in live tick (Dermacentor variabilis) counts compared to untreated control rats (Dermacentor variabilis [1]; SD 9) [%]	Geometric mean percent reduction in live tick (Dermacentor variabilis) counts compared to untreated control rats (Dermacentor variabilis [1]; SD 16) [%]	Geometric mean percent reduction in live tick (Dermacentor variabilis) counts compared to untreated control rats (Dermacentor variabilis [1]; SD 23) [%]	Geometric mean percent reduction in live tick (Dermacentor variabilis) counts compared to untreated control rats (Dermacentor variabilis [1]; SD 30) [%]	Geometric mean percent reduction in live flea (Ctenocephalides felis) counts compared to untreated control rats (Ctenocephalides felis; 25 mg/kg, SD 2) [%]	Geometric mean percent reduction in live flea (Ctenocephalides felis) counts compared to untreated control rats (Ctenocephalides felis; 25 mg/kg, SD 9) [%]	Geometric mean percent reduction in live flea (Ctenocephalides felis) counts compared to untreated control rats (Ctenocephalides felis; 25 mg/kg, SD 16) [%]	Geometric mean percent reduction in live flea (Ctenocephalides felis) counts compared to untreated control rats (Ctenocephalides felis; 25 mg/kg, SD 23) [%]	Geometric mean percent reduction in live flea (Ctenocephalides felis) counts compared to untreated control rats (Ctenocephalides felis; 25 mg/kg, SD 30) [%]	pest or weed control at 100 ppm (Laodelphax striatellus) [%]	also measured
CN(C(=O)c1ccc(F)cc1)c1cccc(C(=O)Nc2c(I)cc(C(F)(C(F)(F)F)C(F)(F)F)cc2C(F)(F)F)c1F [Compound 24]	90	90	90	90	90	90													Geometric mean percent reduction in live flea (Ctenocephalides felis) counts compared to untreated control rats (Ctenocephalides felis; 10 mg/kg, SD 2): 100%; Geometric mean percent reduction in live flea (Ctenocephalides felis) counts compared to untreated control rats (Ctenocephalides felis; 10 mg/kg, SD 9): 99%; Geometric mean percent reduction in live flea (Ctenocephalides felis) counts compared to untreated control rats (Ctenocephalides felis; 10 mg/kg, SD 16): 97%; Geometric mean percent reduction in live flea (Ctenocephalides felis) counts compared to untreated control rats (Ctenocephalides felis; 10 mg/kg, SD 23): 96%; Geometric mean percent reduction in live flea (Ctenocephalides felis) counts compared to untreated control rats (Ctenocephalides felis; 10 mg/kg, SD 30): 77%
CN(C(=O)c1ccc(F)c(F)c1)c1cccc(C(=O)Nc2c(I)cc(C(F)(C(F)(F)F)C(F)(F)F)cc2C(F)(F)F)c1F [Compound 51]		90				90	90	82	95	80	73	55	100	98	91	95	93	≥ 70	
O=C(Nc1cccc(C(=O)Nc2c(I)cc(C(F)(C(F)(F)F)C(F)(F)F)cc2C(F)(F)F)c1F)c1ccc(C(F)(F)F)nc1 [Compound 67, N-(2-fluoro-3-((2-iodo-4-(perfluoropropan-2-yl)-6-(trifluoromethyl)phenyl)carbamoyl)phenyl)-6-(trifluoromethyl)nicotinamide]	90	90	90	90	90	90	90	57	98	100	100	77	98	93	97	81	79	≥ 70	pest or weed control at 0.04 µg/cm2, 0.04 µg/cm2 (Rhipicephalus sanguineus; dose 0.04 μg/cm^2, 48 h): 90%; inhibition in vivo at 2 mg/kg (Dermacentor variabilis [2]; [3]): 100%; inhibition in vivo at 2 mg/kg (Dermacentor variabilis [2]; [4]): 95%; inhibition in vivo at 2 mg/kg (Dermacentor variabilis [2]; [5]): 32%; inhibition in vivo at 2 mg/kg (Dermacentor variabilis [2]; [6]): 20%; inhibition in vivo at 10 mg/kg (Dermacentor variabilis [2]; [3]): 100%; inhibition in vivo at 10 mg/kg (Dermacentor variabilis [2]; [4]): 100%; inhibition in vivo at 10 mg/kg (Dermacentor variabilis [2]; [5]): 99%; inhibition in vivo at 10 mg/kg (Dermacentor variabilis [2]; [6]): 75%; inhibition in vivo at 10 mg/kg (Dermacentor variabilis [2]; SD 30, read-out: Geometric mean percent reduction in live tick (Dermacentor variabilis) counts compared to untreated control rats): 57%
